Experiment [1] has as its target T1, L-ornithine N(5)-monooxygenase (Aspergillus fumigatus (strain ATCC MYA-4609 / CBS 101355 / FGSC A1100 / Af293), UniProt E9QYP0). The experiment in a line: SidA Activity Assay. Conditions: pH 7.5. The method, then: Briefly, this assay consists of the formation of nitrite from hydroxyl amine that is quantified by formation of a chromophore with α-naphthylamine, which has an absorbance maximum at 529 nm. Formation of HO-Orn was quantified using a standard curve with hydroxylamine (25−350 μM). The standard assay contained 25 μL of 100 mM sodium phosphate (pH 7.5), 1 μM SidA, 500 μM L-Orn, and 250 μM NADPH for activity and IC50 determinations. Compound concentration was varied from 0.01 to 1 mM, and the reaction mix contained a final DMSO concentration of 10%. The reaction was started with the addition of NADPH, allowed to proceed for 20 min atRT, and quenched with 13 μL of 2 N HClO4. To identify compounds that caused inhibition by inducing protein aggregation, the IC50 was determined in 100 mM phosphate buffer, pH 7.5, containing 0.1% v/v Triton X-100.23 As some compounds had either an increase or decrease in the color development or had absorbance at a visi

Experiment [2] concerns the target T1, L-ornithine N(5)-monooxygenase. The experiment in a line: ADP-TAMRA Binding Assay. The note with it: pH 7. Here is the method:
The 96 well plates were used, and the reaction volume was 25 μL using 50 mM sodium phosphate buffer (pH 7.0). For the screening, 30 nM of ADP-TAMRA with 2 μM SidA (based on the Bradford assay) and 20 μM of library compound were used, withthe final DMSO concentration at 2%. Fluorescence polarization measurements were performed with excitation at 544 nm and emission at 584 nm, using a wavelength cutoff of 570 nm. Anisotropy values were normalized to the values obtained in the negative control sample: SidA, ADP-TAMRA, and DMSO. The positive control consisted of ADP-TAMRA and DMSO.

Each structure is given as a SMILES string.

T1 sequence (E9QYP0 whole entry): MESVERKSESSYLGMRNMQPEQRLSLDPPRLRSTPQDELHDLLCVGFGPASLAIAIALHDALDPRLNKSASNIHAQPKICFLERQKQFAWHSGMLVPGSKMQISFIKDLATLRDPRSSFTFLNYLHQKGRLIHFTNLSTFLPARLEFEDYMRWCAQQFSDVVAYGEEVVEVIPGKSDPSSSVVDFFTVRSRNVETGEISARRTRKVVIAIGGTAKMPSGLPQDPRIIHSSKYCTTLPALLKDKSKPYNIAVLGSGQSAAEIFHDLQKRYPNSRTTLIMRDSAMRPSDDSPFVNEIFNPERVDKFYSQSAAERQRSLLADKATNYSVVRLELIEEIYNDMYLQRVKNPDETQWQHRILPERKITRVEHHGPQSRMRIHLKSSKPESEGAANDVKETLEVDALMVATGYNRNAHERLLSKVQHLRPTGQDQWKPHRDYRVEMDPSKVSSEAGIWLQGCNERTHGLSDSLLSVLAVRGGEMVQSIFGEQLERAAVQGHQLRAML

In experiment [1], `CC1=C(O)C(=O)C=C2C1=CC=C1[C@@]2(C)CC[C@@]2(C)[C@@H]3C[C@](C)(C(=O)O)CC[C@]3(C)CC[C@]12C` [Celastrol] gave an IC50 of 11 µM. The molecule also displayed a Kd in experiment [2] of 1.4 µM.

For the origin of these results see BindingDB's records for doi:10.1021/acschembio.6b00666 (Virginia Tech, 2016).
